# Reference: PMC8145107 (Pharmaceutics, 2021)
# What was measured:
# [1] = system: Salmonella typhimurium TA98; conditions: TA98, without S-9 mix; J2 40, NA49 200, positive controls 1-2 μg/plate
# Description: To perform the Ames test of J2 and NA49, the number of revertant colonies was counted on each compound-treated plate at the maximum concentration at which the compound was soluble and nontoxic to the S. typhimurium tester strains (Supplementary Material S1). The ratio of the number of revertant colonies in the treated plate to colonies in the vehicle plate. […] For the hERG K^+ channel binding assay of J2 and NA49, the inhibitory activity against the hERG K^+ channel and its ligand was measured using a red fluorescent hERG channel ligand tracer. The final activity was assessed as a decrease in the degree of fluorescence polarization. […]
# The test was conducted with maximum concentration at which the compound was
# soluble and nontoxic to the S. typhimurium tester strains. #Factor = No. of revertant colonies
# of treated plate colonies of vehicle control plate. […]
# NCI-H460 cells [2] = assay: Cell death by PI staining / flow cytometry, NCI-H460; assay type: cell-based, human; conditions: NCI-H460; cisplatin 3 µM, Gef 30 µM, alone
# Description: (§1) Cells were plated in 6-well culture plates at a density of 1 × 10^5 cells/well. Compounds were applied to the cells immediately after seeding. When cells were harvested, cells were washed once with 1× phosphate-buffered saline (PBS), dissociated using Trypsin-EDTA, and centrifuged at 13,000 rpm for 3 min at 4 °C. Next, 1 mL of 1× PBS was added to wash the pellet again. Finally, 1 mL of 1× PBS and 1 μg/mL of propidium iodide (PI) were added to each polystyrene round-bottom tube. Flow cytometric analysis was performed using a FACS flow cytometer (BD Bioscience). To measure cell death, 10^4 cells were counted, and PI-stained cells were analyzed. FACS analysis in accordance with the manufacturer’s instruction. […]
# (§2) Table S1. CI values of NSCLC cell lines.
# (§3) Cell line Combination drug NA 10 µM NA 20 µM
# (§4) CI values were calculated from the data of percent inhibition of cell death by PI staining. Each CI
# (§5) value was analyzed by CompuSyn software. […]
# A549 cells = assay: Cell death by PI staining / flow cytometry, A549; assay type: cell-based, human; conditions: cisplatin 3 µM, Gef 30 µM, alone
# Description: as §1, §2, §3, §4, §5
# CYP450 3A4 = CYP450 3A4 (Homo sapiens, UniProt P08684); assay: CYP450 enzyme inhibition, 3A4; conditions: 10 μM
# Sequence of CYP450 3A4 (P08684 whole entry): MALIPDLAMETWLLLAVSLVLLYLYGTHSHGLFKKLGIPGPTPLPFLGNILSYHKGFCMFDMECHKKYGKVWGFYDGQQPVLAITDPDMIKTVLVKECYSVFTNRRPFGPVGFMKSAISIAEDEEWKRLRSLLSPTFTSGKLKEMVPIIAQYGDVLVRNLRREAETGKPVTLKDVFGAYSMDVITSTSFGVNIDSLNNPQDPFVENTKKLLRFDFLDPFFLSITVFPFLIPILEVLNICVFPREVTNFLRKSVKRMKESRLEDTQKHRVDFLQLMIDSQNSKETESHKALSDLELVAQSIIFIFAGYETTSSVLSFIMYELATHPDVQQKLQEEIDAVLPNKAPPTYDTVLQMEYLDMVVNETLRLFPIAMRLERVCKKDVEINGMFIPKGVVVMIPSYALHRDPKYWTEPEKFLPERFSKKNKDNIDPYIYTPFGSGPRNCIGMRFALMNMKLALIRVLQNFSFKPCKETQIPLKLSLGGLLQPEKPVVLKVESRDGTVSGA
# CYP2C9 = CYP2C9 (Homo sapiens, UniProt P11712); assay: CYP450 enzyme inhibition, 2C9; assay type: in vitro ADME; conditions: 10 μM
# Sequence of CYP2C9 (P11712 whole entry): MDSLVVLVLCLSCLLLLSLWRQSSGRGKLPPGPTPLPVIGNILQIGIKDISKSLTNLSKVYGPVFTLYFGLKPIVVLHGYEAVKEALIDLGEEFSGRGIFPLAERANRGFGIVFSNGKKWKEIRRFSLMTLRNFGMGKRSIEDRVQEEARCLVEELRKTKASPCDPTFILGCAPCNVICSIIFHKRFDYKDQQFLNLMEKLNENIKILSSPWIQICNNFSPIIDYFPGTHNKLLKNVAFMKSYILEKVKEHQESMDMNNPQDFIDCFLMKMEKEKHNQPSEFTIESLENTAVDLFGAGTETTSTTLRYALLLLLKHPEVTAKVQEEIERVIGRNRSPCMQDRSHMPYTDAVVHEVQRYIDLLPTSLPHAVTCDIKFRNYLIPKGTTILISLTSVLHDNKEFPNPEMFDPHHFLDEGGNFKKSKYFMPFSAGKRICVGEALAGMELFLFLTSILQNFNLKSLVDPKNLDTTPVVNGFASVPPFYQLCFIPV
# Description: (§6) Permeability was evaluated with a parallel artificial membrane permeability (PAMPA) assay using an artificially generated lipid-infused membrane.
# CYP1A2 = target: T1, CYP1A2 (Homo sapiens, UniProt P05177); assay: in vitro
# T1 sequence (P05177 1-516): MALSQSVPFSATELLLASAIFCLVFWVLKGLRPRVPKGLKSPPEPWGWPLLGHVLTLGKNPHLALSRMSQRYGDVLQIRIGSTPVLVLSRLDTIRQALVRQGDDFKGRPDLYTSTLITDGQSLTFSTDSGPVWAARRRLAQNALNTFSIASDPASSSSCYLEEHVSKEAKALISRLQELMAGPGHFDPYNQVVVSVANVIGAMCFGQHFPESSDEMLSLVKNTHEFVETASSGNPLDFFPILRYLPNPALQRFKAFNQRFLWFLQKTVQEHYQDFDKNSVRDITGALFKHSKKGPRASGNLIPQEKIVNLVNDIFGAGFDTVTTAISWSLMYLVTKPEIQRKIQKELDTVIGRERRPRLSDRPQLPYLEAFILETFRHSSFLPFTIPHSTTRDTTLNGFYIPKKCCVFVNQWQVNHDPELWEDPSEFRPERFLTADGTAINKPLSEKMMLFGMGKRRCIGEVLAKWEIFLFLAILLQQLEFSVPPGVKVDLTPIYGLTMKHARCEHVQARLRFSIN
# CYP450 2D6 = CYP450 2D6 (Homo sapiens, UniProt P10635); assay: CYP450 enzyme inhibition, 2D6; assay type: in vitro ADME; conditions: 10 μM
# Sequence of CYP450 2D6 (P10635 whole entry): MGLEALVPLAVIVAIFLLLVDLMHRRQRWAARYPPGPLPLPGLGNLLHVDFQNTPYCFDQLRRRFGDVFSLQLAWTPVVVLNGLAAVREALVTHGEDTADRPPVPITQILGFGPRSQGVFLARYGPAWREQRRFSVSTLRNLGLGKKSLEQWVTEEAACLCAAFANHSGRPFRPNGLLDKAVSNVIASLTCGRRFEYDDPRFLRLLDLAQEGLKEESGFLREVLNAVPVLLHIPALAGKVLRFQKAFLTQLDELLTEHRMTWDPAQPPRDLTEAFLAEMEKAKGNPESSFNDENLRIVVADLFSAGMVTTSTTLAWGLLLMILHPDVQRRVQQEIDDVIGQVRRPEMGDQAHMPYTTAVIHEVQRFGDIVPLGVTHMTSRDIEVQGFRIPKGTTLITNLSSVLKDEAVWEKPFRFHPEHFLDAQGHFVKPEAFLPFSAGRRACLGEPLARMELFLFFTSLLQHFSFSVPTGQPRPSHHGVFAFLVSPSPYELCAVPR
# NCI-H460 cells [3] = assay: MTT viability assay, NCI-H460; assay type: cell-based, human; conditions: 24 h
# Description: The human NSCLC cell lines of NCI-H460, A549, HCC827, PC9, NCI-H1650, and NCI-H1975 were obtained from the American Type Culture Collection (Rockville, MD, USA). Cells were cultured in RPMI 1640 medium containing 10% FBS, 2 mmol/L L-glutamine, and 100 units/mL of penicillin and streptomycin and maintained at 37 °C in a humidified incubator containing 5% CO2.
# Cell viability against gefitinib-, cisplatin-, and NA49-induced toxicity was determined using an MTT (Amersham Pharmacia Biotech) assay in 96-well plates. […] Next, cells were incubated with 100 µL of 5 mg/mL 3-(4,5-dimethylthiazol-2-yl)-2,5-diphenyltetrazolium bromide (Sigma Aldrich, M5655) for 2 h. After the MTT mixture was removed, 100 µL of DMSO was added to each well, and absorbance at 540 nm was measured using an ELISA plate reader (TECAN, Twinfinite PRO).
# CYP450 2C19 = CYP450 2C19 (Homo sapiens, UniProt P33261); assay: CYP450 enzyme inhibition, 2C19; assay type: in vitro ADME; conditions: 10 μM
# Sequence of CYP450 2C19 (P33261 whole entry): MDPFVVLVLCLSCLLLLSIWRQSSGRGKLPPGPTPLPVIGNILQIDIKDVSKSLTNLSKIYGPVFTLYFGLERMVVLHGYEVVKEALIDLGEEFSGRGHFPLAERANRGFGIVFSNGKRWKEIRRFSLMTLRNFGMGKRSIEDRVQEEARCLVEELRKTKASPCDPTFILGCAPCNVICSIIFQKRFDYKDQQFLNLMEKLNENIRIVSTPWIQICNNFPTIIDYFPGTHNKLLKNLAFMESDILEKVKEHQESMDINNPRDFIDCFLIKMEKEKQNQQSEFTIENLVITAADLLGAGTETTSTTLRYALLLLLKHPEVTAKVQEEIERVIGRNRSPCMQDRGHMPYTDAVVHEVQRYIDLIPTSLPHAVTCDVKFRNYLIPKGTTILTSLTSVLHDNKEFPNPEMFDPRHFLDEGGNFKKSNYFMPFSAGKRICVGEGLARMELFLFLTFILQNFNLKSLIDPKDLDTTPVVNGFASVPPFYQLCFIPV
# Description: as §6
smiles,measurement,setting,value
"O=[N+]([O-])c1ccc2c(c1)Cc1ccccc1-2 [2-nitrofluorene, reference compound]",Factor (revertant colonies of treated plate/vehicle control plate),[1],28.9
same,Revertant colonies/plate (Mean ± S.D.),[1],462 ± 24 colonies/plate
"COc1cc2ncnc(Nc3ccc(F)c(Cl)c3)c2cc1OCCCN1CCOCC1 [Gef, Gefitinib, reference compound]",Cell death,NCI-H460 cells [2],less than 30%
same,Cell death,A549 cells,less than 30%
"OCc1ncc2n1-c1ccc(Cl)cc1C(c1ccccc1F)=NC2 [OH-midazolam, reference compound]","% inhibition of CYP450 3A4, positive control",CYP450 3A4,92.5%
"CCCCNC(=O)NS(=O)(=O)c1ccc(CO)cc1 [OH-tolbutamide, reference compound]","% inhibition of CYP450 2C9, positive control",CYP2C9,91.7%
CC(=O)Nc1ccc(O)cc1 [acetaminophen],inhibition at 10 μM,CYP1A2,92.4%
"[N-]=[N+]=[N-].[Na+] [sodium azide, reference compound]",Factor (revertant colonies of treated plate/vehicle control plate),[1],4.1
same,Revertant colonies/plate (Mean ± S.D.),[1],441 ± 16 colonies/plate
"CN1CC[C@@]23CCCC[C@@H]2[C@@H]1Cc1ccc(O)cc13 [dextrophan, reference compound]","% inhibition of CYP450 2D6, positive control",CYP450 2D6,94.0%
"N.N.[Cl][Pt][Cl] [Cisplatin, cisplatin, reference compound]",Cell death,NCI-H460 cells [2],less than 30%
same,IC50,NCI-H460 cells [3],11.7 µM
same,Cell death,A549 cells,less than 30%
"COc1ccc2nc([S+]([O-])Cc3ncc(CO)c(OC)c3C)[nH]c2c1 (centres unmarked) [OH-omeprazole, reference compound]","% inhibition of CYP450 2C19, positive control",CYP450 2C19,93.2%
